Experimental data taken from patent US20060292244A1, “Use of pvp-iodine liposomes for treatment of acne” (priority 2003, published 2006).

Tested on: Human ciliated epithelium cells
Test: in-vitro ciliary activity / ciliary vibration test
Format: cell-based
Description: 1 test substance at a temperature of 37° C.

N=C(NCCCCCCNC(=N)NC(=N)Nc1ccc(Cl)cc1)NC(=N)Nc1ccc(Cl)cc1 [chlorohexidine solution, chlorohexidine]
ciliary activity / ciliary vibration: decrease
